The record followed here is BindingDB's records for PubMed 39740572 (Washington University School of Medicine).

The target of this test is T1, P2X purinoceptor 7 (Homo sapiens, UniProt Q99572).
T1 sequence (Q99572 whole entry): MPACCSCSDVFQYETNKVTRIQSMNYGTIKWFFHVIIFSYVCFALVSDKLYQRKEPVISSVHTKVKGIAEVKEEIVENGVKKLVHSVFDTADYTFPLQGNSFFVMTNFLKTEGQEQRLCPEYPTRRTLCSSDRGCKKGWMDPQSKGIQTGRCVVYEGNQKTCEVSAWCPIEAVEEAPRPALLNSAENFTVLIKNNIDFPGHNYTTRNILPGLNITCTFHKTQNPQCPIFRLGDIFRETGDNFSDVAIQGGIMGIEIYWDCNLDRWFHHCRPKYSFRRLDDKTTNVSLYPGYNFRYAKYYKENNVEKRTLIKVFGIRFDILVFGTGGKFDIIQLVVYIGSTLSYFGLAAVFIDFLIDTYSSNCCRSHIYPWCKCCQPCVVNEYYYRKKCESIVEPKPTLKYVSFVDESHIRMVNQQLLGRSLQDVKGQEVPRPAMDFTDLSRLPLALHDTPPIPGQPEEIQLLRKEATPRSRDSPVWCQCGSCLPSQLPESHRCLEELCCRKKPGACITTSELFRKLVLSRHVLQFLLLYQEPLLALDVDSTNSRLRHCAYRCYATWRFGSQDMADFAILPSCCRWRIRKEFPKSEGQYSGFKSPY
The experiment in a line: Binding affinity to human P2X7 receptor expressed in HEK293 cells assessed as inhibition of BzATP-induced increase in ethidium bromide uptake by fluorescence plate reader analysis.

Regarding `O=C(NCc1cccc(C(F)(F)F)c1Cl)[C@@H]1CCC(=O)N1C/C=C/I`, the IC50 came out at 9.8 nM.

The IC50 is the concentration that inhibits the measured activity by half.
